According to patent EP0449955B1, “SYNTHETIC HIV-LIKE PEPTIDES, THEIR COMPOSITIONS AND USES” (CLARITY TECHNOLOGIES INCORPORATED, priority 1988, dated 1996):
“Also recorded” adds a separate entry of the source.

Key:
[1] = EIA of 4S36 as free peptide or BSA conjugate on 3 polystyrene microtiter plates; format: binding, human; details: BSA-peptide conjugate, plastic type 1; Figure 9
Description: Antigenicity of each unnatural peptide is indicated by its ability as a free peptide to inhibit binding of HIV-1 antibodies to a BSA conjugate of peptide 2S09. […] Antigenicity of each peptide is indicated by its ability as a free peptide to inhibit binding of HIV-1 antibodies to a BSA conjugate of either 2S09 or peptide 5S67, a natural sequence variant reported in HIV-1 isolates from Zaire (Gnann et al., Science 237:1346-1349, 1987; and Alizon et al., Cell 46:36, 1986). […] Antigenicity of each peptide is indicated by its ability as a free peptide to inhibit binding of SIV/HIV-2 antibodies to a BSA conjugate of peptide 2S27. […] AA variants of peptide 2S27 are highlighted. […] Different groups of peptides were initially conjugated to BSA as indicated and the conjugates of each pool were first tested. […] All peptides were utilized C-terminally conjugated to BSA. […]
The free peptides or peptide-protein conjugates of Figures 1-13 were initially screened for immunoreactivity by coating each well of polystyrene microtiter EIA plates (Costar, Cambridge, Massachusetts, U.S.A.) with 0.2 ml amounts of concentrations of 5-50 micrograms/ml peptide in Tris buffer, 10 mM, pH 8.0, at 4°C overnight. […] Reactions were stopped with 50 microliters of 4N H₂SO₄, and the color development was quantitated in a Multiscan plate reader at A₄₉₂. […]

antibodies to HIV-1 [2] = assay: EIA of peptide-carrier conjugates with individual human sera; format: binding; details: BSA-SMCC conjugate; for immunoreactivity with positive sera: 98 sera containing antibodies to HIV-1, Figures 10B, 10C
Description: (§1) The free peptides or peptide-protein conjugates of Figures 1-13 were initially screened for immunoreactivity by coating each well of polystyrene microtiter EIA plates (Costar, Cambridge, Massachusetts, U.S.A.) with 0.2 ml amounts of concentrations of 5-50 micrograms/ml peptide in Tris buffer, 10 mM, pH 8.0, at 4°C overnight. Peptides or peptide-protein conjugates showing immunoreactivity by EIA were then further diluted for coating to determine the minimal concentrations required that allowed maximal immunoreactivity with antibodies to HIV, and minimal nonspecific reactivity with normal sera. The EIA tests were performed as follows: The coating solution was removed from each well and the wells were blocked at 37°C for 30 minutes with a solution of 50 mM phosphate, 100 mM NaCl, pH 7.4, 1% BSA, 0.5% gelatin. The wells were then aspirated dry with a microtiter plate washer and washed 3 times with a solution of 50 mM phosphate, 100 mM NaCl, .05% Tween 20, (trademark) pH 7.4 (PBST). A 1:101 dilution (in PBST with 1% BSA, 1% NRS) of the primate serum to be tested was then added as 0.2 ml to each washed well and the plates were incubated at 37°C for 30 minutes. The plates were then washed x 3 with PBST, and 0.2 ml amounts of a 1:2000 dilution of goat anti-human (GAH) peroxidase enzyme conjugate (Organon Teknika, Cappel, Melvern, Pennsylvania, U.S.A.) that recognized human IgG, IgA, and IgM were added to each well, and the plates were incubated for 30 minutes at 37°C. The plates were then washed x 3 with PBST and incubated with 0.2 ml/well substrate consisting of 0,1M citric acid pH 5.2, 0.1 mg/ml o-phenylene diamine, 0.01% H₂O₂, at room temperature in the dark for 10 minutes. Reactions were stopped with 50 microliters of 4N H₂SO₄, and the color development was quantitated in a Multiscan plate reader at A₄₉₂. In each series of experiments positive and negative controls were included, and all tests were done in duplicate or quadruplicate. Most peptides and peptide conjugates were initially screened against a 1:101 dilution of pools of HIV positive or HIV negative sera, and the same serum pool was used to allow quantitative comparison of immunoreactivity of different free peptides or peptide-protein conjugates.
Figure 10A illustrates the immunoreactivity of synthetic natural peptides 2S06 and 2S09 (Figure 1) when conjugated via their C-terminal GC spacer to KLH using the heterobifunctional linker MBS. […] However, the immunoreactivity of many of the positives was low (A₄₉₂ less than 1.0), and some of the negative samples had A₄₉₂ values slightly above 0.20, resulting in minimal discrimination between negatives and positives. This poor discrimination led to a search for an improved carrier protein and/or linker.
Figure 10B illustrates the reactivity of synthetic natural peptide IWGCSGKLICTTAVPGC (2S09) when conjugated through its C-terminus to BSA via the heterobifunctional linker SMCC. […] Improvement in assay performance as compared with results of Example 5A is noted with respect to negative samples having lower A₄₉₂ values, and most positive samples having higher A₄₉₂ values. […] Because of the possibility that some of the low responsiveness might be due to antigenic differences of genetic variants in the region of this epitope, as reported for HIV isolates from Zaire (Gnann et al., Science 237:1346-1349, 1987), the natural sequence variant peptide 5S67 (Figure 3) was synthesized, chemically linked to BSA with SMCC, and tested against the same sera, plus one additional negative serum sample (Figure 10C). […] This instigated a search for unnatural sequence variants of peptide 2S09 that would retain high immunoreactivity with most sera that contained antibodies to HIV-1, and yet retain low reactivity with sera devoid of antibodies to HIV. […]

antibodies to HIV-1 [3] = assay: Rapid EIA with latex-immobilized peptide reagents, HIV-1; format: binding, human; details: passive adsorption
Description: (§2) A test device for performing rapid tests in less than 15 minutes was prepared as illustrated in Figures 14 and 15. Referring to Figures 14 and 15, the device comprises a plastic slide 10 (approximately 1 inch wide by 3/16 inch thick by 3 1/4 inches long) having a plurality of funnel-like wells 12, each having a capacity of approximately 200 microliters, an upper inflow tract rim 14 diameter of approximately 9 mm and a lower outflow tract 16 diameter of approximately 2 mm. The undersurface of the outflow tract 16 is designed so as to provide a smooth even contact with a membrane filter 18 placed next to it in the apparatus. The membrane filter separates reactants passing through it by size, retaining those particles above a predetermined size, such as above 0.22 µm, or above 0.45 µm in size (depending upon the specific filter chosen), though other filters placed into the apparatus might separate by binding or affinity (i.e. nitrocellulose, glass). […]
The mixture was shaken gently a room temperature for 1 hour, and then washed 3 times by centrifugation at 9,000 x g for 10 minutes, removal of supernate, and resuspension of the pellet in a 12-14 ml volume of deionized water, pH 4.5. […] It was determined that this stock solution of latex coated with peptide-BSA conjugate could be diluted 1:10-1:30 with latex diluent buffer for use in the rapid EIA described below. […]

antibodies to HIV-1 [4] = assay: EIA of HIV-1 gp41 peptide-protein conjugates against serum pools; format: binding, human; details: peptide conjugated via C-terminus to BSA (SMCC), coated at 10 micrograms peptide/ml; 1:101 dilution of HIV+ serum pool; Figure 1
Description: as §1
The peptides in Figures 1 and 5 were synthesized as described in Example 1 and conjugated to KLH or BSA as described in Example 2. These peptide-protein conjugates were coated to polystyrene microtiter plates all at a concentration 10 micrograms peptide/ml and evaluated for immunoreactivity as described in Example 3, using a 1:101 dilution of a pool of sera (HIV+/SIV+, respectively) containing antibodies to HIV-1 (Figure 1) or to HIV-2 (Figure 5), as well as pooled serum (HIV-/SIV-, respectively) containing no antibodies to HIV-1 or HIV-2. […] Since sera from patients infected with HIV-2 are relatively unavailable in the United States, the immunoreactivity of HIV-2 synthetic peptides was assessed using serum from macaques infected with SIV, obtained from the University of Washington Primate Center, Seattle, Washington, U.S.A. The AA sequence of SIV is nearly identical to HIV-2 in the region of the peptides synthesized (see Myers et al., Human Retroviruses and AIDS, 1988. A compilation of nucleic acid and amino acid sequences. Los Alamos National Laboratory, Los Alamos, New Mexico, 87545, USA).

antibodies to HIV-1 [5] = assay: Rapid test with peptide-BSA-colloidal gold conjugate; format: binding, human
Description: as §2
An 8 ml quantity of peptide IWGCSGKLICTTAVPGC (A280nm∼=0.50) conjugated via its C-terminus and SMCC to BSA was dialyzed overnight against 2L of DI water at 4°C. […] The A₅₈₀ of each well was determined and the lowest values, indicating best protection, were at pH6.1>pH6.0>> other pH's. Using larger amounts of gold sol at pH6.1 the minimal amount of protective protein was determined to be 70 microliters of the dialyzed peptide-BSA (A₂₈₀ = 0.45). […]

Sequence	positive/negative ratios [1]	reactivity with sera that did not contain antibodies to HIV-1 (antibodies to HIV-1 [2]; 85-87 negative sera, Figures 10C, 11)	A492 values of positive samples (none less than) (antibodies to HIV-1 [2]; 98 positive samples, Figure 11)	immunoreactivity with positive sera (antibodies to HIV-1 [2]; 11)	performance of free peptide passively adsorbed to latex (antibodies to HIV-1 [3])	immunoreactivity with HIV-1 antibodies (antibodies to HIV-1 [4])	result with positive serum samples (red-purple dots) (antibodies to HIV-1 [5]; 20 sera containing antibodies to HIV-1, diluted 1:100)	result with negative sera (antibodies to HIV-1 [5]; 20 sera without antibodies to HIV-1)
VWGCSGKLICTTAVPGC [4S36]	≥ 20	remained acceptably low	≥ 1.0	striking increase in immunoreactivity of the low positives	produced an immunoreactive reagent			
IWGCSGKLICTTAVPGC [2S09]				very low immunoreactivity		maximally immunoreactive; also recorded: higher reactivity; also recorded: Significant immunoreactivity; also recorded: slightly superior immunoreactivity	19 of the 20	only the white color of the underlying membrane remained
